Series [1] deals with T1, 5-hydroxytryptamine receptor 2C (Homo sapiens, UniProt P28335).
T1 sequence (P28335 whole entry): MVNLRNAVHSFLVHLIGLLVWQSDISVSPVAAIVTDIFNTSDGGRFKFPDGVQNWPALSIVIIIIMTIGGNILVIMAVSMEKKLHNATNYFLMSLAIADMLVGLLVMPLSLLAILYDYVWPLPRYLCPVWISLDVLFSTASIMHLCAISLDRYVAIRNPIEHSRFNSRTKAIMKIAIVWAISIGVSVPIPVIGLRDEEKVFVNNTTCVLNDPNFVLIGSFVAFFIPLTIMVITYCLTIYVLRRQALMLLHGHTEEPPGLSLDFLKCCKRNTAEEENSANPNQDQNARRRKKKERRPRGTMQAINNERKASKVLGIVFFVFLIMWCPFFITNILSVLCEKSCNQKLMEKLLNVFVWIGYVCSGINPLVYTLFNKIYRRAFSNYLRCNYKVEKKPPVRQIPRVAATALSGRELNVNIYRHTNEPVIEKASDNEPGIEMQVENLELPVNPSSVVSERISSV
Nature of the series: (§1) Agonist activity at recombinant human unedited 5HT2C receptor isoform INI expressed in Flp-In-293 cells assessed as increase in calcium influx measured for 300 secs by Fluo-4 dye based FLIPR assay. The class given is functional, cell-based.

For series [2], the target named is T2, 5-hydroxytryptamine receptor 2C (Homo sapiens) (UniProt P28335).
T2 sequence (whole entry): T1 sequence (P28335 whole entry)
Nature of the series: Agonist activity at recombinant human unedited 5HT2C receptor isoform INI expressed in Flp-In-293 cells assessed as increase in calcium influx measured for 300 secs by Fluo-4 dye based FLIPR assay relative to control. The class given is functional, cell-based.

Series [3] concerns the target T3, 5-hydroxytryptamine receptor 2B (Homo sapiens, UniProt P41595). The series is described as follows: Agonist activity at recombinant human 5HT2B receptor expressed in Flp-In-293 cells assessed as increase in calcium influx measured for 300 secs by Fluo-4 dye based FLIPR assay. The class given is cell-based.
A further series has as its target 5-HT2B receptor (Homo sapiens, UniProt P41595). Nature of the series: Agonist activity at recombinant human 5HT2B receptor expressed in Flp-In-293 cells assessed as increase in calcium influx measured for 300 secs by Fluo-4 dye based FLIPR assay relative to control. The following applies: Flp-In-293 cells expressing recombinant human 5HT2B receptor. The class given is cell-based.

The target in series [4] is T4, 5-hydroxytryptamine receptor 2A (Homo sapiens, UniProt P28223). Nature of the series: Agonist activity at recombinant human 5HT2A receptor expressed in Flp-In-293 cells assessed as increase in calcium influx measured for 300 secs by Fluo-4 dye based FLIPR assay. The class given is cell-based.
In the next series the target is 5-HT2A receptor (Homo sapiens, UniProt P28223). Nature of the series: (§2) Agonist activity at recombinant human 5HT2A receptor expressed in Flp-In-293 cells assessed as increase in calcium influx measured for 300 secs by Fluo-4 dye based FLIPR assay relative to control. The class given is cell-based. The following applies: Flp-In-293 cells expressing recombinant human 5HT2A receptor.

The target in series [5] is T2, 5-hydroxytryptamine receptor 2C (Homo sapiens). The series is described as §1. The class given is functional, cell-based.
Series [6] shares this target. The series is described as follows: Agonist activity at recombinant human unedited 5HT2C receptor isoform INI expressed in Flp-In-293 cells assessed as increase in calcium influx up to 10 uM measured for 300 secs by Fluo-4 dye based FLIPR assay. The class given is functional, cell-based.
Series [7] addresses T3, 5-hydroxytryptamine receptor 2B. The series is described as follows: Agonist activity at recombinant human 5HT2B receptor expressed in Flp-In-293 cells assessed as increase in calcium influx up to 10 uM measured for 300 secs by Fluo-4 dye based FLIPR assay. The class given is cell-based. The following applies: flp-in-293, 5 min.
For series [8], the target named is T4, 5-hydroxytryptamine receptor 2A. The series is described as follows: Agonist activity at recombinant human 5HT2A receptor expressed in Flp-In-293 cells assessed as increase in calcium influx up to 10 uM measured for 300 secs by Fluo-4 dye based FLIPR assay. The following applies: flp-in-293, 5 min. The class given is cell-based.
The target of series [9] is Serotonin 2 receptors; 5-HT2a & 5-HT2c (Homo sapiens) (UniProt P28223+P28335). The series is described as follows: Selectivity ratio of EC50 for recombinant human 5HT2A receptor expressed in Flp-In-293 cells to EC50 for recombinant human unedited 5HT2C receptor isoform INI expressed in Flp-In-293 cells. The class given is cell-based.
For another series, the species on record is Homo sapiens. Nature of the series: Selectivity ratio of EC50 for recombinant human 5HT2B receptor expressed in Flp-In-293 cells to EC50 for recombinant human unedited 5HT2C receptor isoform INI expressed in Flp-In-293 cells. The class given is cell-based.
The target in series [10] is T4, 5-hydroxytryptamine receptor 2A. The series is described as §2. The class given is cell-based. The note with it: flp-in-293, 5 min.

Active and inactive are the calls of the source. The rule behind the calls is not given here.

Chain of 5-HT2A receptor (P28223 whole entry): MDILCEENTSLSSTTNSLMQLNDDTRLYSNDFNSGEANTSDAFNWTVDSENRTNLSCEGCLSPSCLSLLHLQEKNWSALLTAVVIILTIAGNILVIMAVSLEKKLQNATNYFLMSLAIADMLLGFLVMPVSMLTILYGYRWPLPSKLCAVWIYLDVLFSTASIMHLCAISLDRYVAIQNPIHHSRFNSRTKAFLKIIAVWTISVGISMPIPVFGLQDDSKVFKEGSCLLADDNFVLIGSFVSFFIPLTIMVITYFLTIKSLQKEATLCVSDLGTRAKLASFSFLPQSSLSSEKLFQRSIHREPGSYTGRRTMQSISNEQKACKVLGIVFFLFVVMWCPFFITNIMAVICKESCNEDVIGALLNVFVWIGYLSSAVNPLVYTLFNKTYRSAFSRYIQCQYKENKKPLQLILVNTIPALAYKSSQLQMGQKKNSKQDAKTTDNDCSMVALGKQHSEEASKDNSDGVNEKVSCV
T4 sequence (P28223 whole entry): as above
Chain of 5-HT2B receptor (P41595 whole entry): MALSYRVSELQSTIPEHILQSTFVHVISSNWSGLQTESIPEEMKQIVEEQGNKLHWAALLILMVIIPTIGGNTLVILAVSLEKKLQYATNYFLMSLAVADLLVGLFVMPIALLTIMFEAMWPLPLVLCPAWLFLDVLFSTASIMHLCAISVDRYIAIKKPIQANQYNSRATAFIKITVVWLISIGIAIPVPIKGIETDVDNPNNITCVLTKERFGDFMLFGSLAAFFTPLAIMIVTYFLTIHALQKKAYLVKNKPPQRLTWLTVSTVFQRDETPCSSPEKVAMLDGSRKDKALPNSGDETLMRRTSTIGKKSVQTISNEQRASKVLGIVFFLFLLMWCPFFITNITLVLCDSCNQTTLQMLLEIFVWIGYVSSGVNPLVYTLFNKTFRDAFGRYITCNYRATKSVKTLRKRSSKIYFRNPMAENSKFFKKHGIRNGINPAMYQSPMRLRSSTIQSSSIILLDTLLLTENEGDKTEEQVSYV
T3 sequence (P41595 whole entry): as above
Chain of Serotonin 2 receptors; 5-HT2a & 5-HT2c (Homo sapiens) (P28223 whole entry, looked up, one chain of several, canonical isoform): as the sequence (P28223 whole entry) above

By Emax is commonly meant the greatest response seen or fitted, relative to the assay's reference. For `CNC[C@H]1C[C@]1(F)c1ccccc1`, the EC50 amounted to 291 nM in series [1], 565 nM in [3] (read-out: EC50) and 156 nM in series [4]. In addition, the Emax in [2] was determined as 96%. Besides, the values for the Emax at 5 min at 5-HT2B receptor and on 5-HT2A receptor were 42% and 40%, respectively.

For `Cl.NC[C@@H]1C[C@@]1(F)c1ccccc1Br`, the pEC50 entry in series [5] was “inactive”. Besides, the outcome in series [6] was inactive. Further, the Activity result in series [7] and in series [8] was “Not Active” throughout.

On to `Cl.NC[C@@H]1C[C@@]1(F)c1cccc(Cl)c1`, for which the EC50 in series [1] worked out at 1060 nM. In addition, the Emax in [2] was 92%. Also, the Activity entry in [7] and in series [8] was “Not Active” each time.

For `COc1ccc(F)cc1C1(F)CC1CN` (racemic), the EC50 in series [1] was found to be 598 nM; in series [3] (read-out: EC50), 116 nM; in series [4], 352 nM. The Emax in [2] is 90%. In addition, the maximum response (Emax) at 5 min was 79% at 5-HT2B receptor and 86% at 5-HT2A receptor.

`NCC1C(c2ccccc2)C1(F)F` (racemic): the EC50 in [1] was found to be 4430 nM; in [3] (read-out: EC50) it was 2350 nM; in series [4], 3680 nM. The maximal response (Emax) in [2] came to 82%. Further, the Emax at 5 min at 5-HT2B receptor was found to be 62%; at 5-HT2A receptor it was 43%.

With `Cc1cccc([C@]2(F)C[C@H]2CN)c1.Cl`, the EC50 in series [1] was 5250 nM. In addition, the maximal response (Emax) in series [2] was 97%. Besides, the Activity result in series [7] and in [8] was “Not Active” each time.

Consider `COc1ccccc1CNC[C@H]1C[C@]1(F)c1ccccc1`, for which the EC50 in [1] came to 789 nM; in [3] (read-out: EC50), 363 nM; in series [4], 320 nM. Also, the Emax in series [2] stood at 85%. Also, the results for the Emax at 5 min on 5-HT2B receptor and on 5-HT2A receptor were 27% and 83%, respectively.

`NC[C@H]1C[C@]1(F)c1cccc(F)c1`: the EC50 in series [1] is 3 nM; in [3] (read-out: EC50) it was 2 nM; in series [3] (read-out: pEC50 (converted)) it was 2.29 nM; in series [4], 3 nM. For the same compound, the Emax in series [2] came out at 107%. For the same compound, the maximal effect (Emax) at 5 min on 5-HT2B receptor turned out to be 106%; on 5-HT2A receptor it was 83%.

Take `NC[C@H]1C[C@]1(F)c1cccc(Cl)c1`: the values for the EC50 in series [1], in series [3] (read-out: EC50) and in [4] were 12 nM, 22 nM and 23 nM, respectively. The Emax in series [2] was found to be 110%. The Emax at 5 min on 5-HT2B receptor was determined as 91%; on 5-HT2A receptor it was 102%.

Regarding `COc1ccccc1CNCC1CC1(F)c1cc(F)ccc1OC` (racemic), the EC50 is 229 nM in [1], 285 nM in series [3] (read-out: EC50) and 31 nM in series [4]. Besides, in [2], the Emax was determined as 103%. The Emax at 5 min on 5-HT2B receptor was 61%; on 5-HT2A receptor it was 92%.

Consider `Cc1cccc([C@@]2(F)C[C@@H]2CN)c1.Cl`, for which the results for the EC50 in series [1] and in series [4] were 8 nM and 162 nM, respectively. For the same compound, the Emax in series [2] was found to be 96%. Moreover, in [7], the Activity entry is listed as “Not Active”. The Emax at 5 min on 5-HT2A receptor was 71%. Besides, the Ratio EC50 in series [9] was 20.

For the compound `Cl.NC[C@@H]1C[C@@]1(F)c1cccc(F)c1`, the pEC50 result in series [5] is “inactive”. For the same compound, the outcome in [6] was inactive. Moreover, the Activity result in series [7] and in [8] was “Not Active” in each case.

Regarding `NC[C@H]1C[C@]1(F)c1ccccc1`, the EC50 in series [1] is 4.7 nM; in series [3] (read-out: EC50) it was 10 nM; in series [4] it was 10 nM. Besides, the Emax in series [2] was found to be 98%. Moreover, the Emax at 5 min at 5-HT2B receptor stood at 104%; at 5-HT2A receptor, 106%. Further, in the series listed under Homo sapiens, the Ratio EC50 turned out to be 2.

In the case of `NCCc1c[nH]c2ccc(O)cc12` [SEROTONIN], the Emax in [10] is 100%.

For `Cl.NC[C@H]1C[C@]1(F)c1ccccc1Br`, the EC50 in [1] was determined as 312 nM; in series [4], 122 nM. The Emax in [2] was determined as 71%. The Activity entry in [7] is recorded as “Not Active”. On 5-HT2A receptor, the Emax at 5 min was 38%.

Take `NC[C@@H]1C[C@@]1(F)c1ccccc1`: the EC50 in series [1] was 4110 nM; in series [3] (read-out: EC50) it was 903 nM; in series [4], 1830 nM. In addition, the maximum response (Emax) in [2] was 87%. Besides, the maximal effect (Emax) at 5 min on 5-HT2B receptor turned out to be 77%; on 5-HT2A receptor, 47%.

Values taken from ChEMBL document CHEMBL4359900 (Eur J Med Chem, 2019).
